{"source": "patent US20230312577A1", "about": "“DUAL KINASE-BROMODOMAIN INHIBITORS” (MONASH UNIVERSITY, priority 2020, published 2023)", "test_system": "Eμ-Myc lymphoma cells", "assay": "In vivo therapeutic assessment, Eμ-Myc lymphoma transplant", "set-up": "species or system mouse", "details": "45 mg/kg IP, 5 days per week, 3 weeks", "method": "For transplantation of Eμ-Myc lymphomas in vivo, cohorts of 6-8 week old B6.SJL-PtprcPepc/BoyJ (B6.CD45.1) mice were inoculated via tail vein injection with 5×10^5 Eμ-Myc lymphoma cells (C57BL/6 (CD45.2)). Cpd 010 and vehicle controls (30% HPBCD) were prepared as above. Three days after lymphoma inoculation, intraperitoneal (IP) injection of compound 10 (45 mg/kg), or vehicle (30% HPBCD) was administered 5 days per week, for a total of 3-weeks of therapy. Detection of tumour cells on peripheral blood was carried out by flow cytometric analysis using the following antibodies; fixable Viability dye-AmCyan (Zom-bie Aqua™ Fixable Viability Kit, BioLegend), anti-mouse CD19-PE (ThermoFisher Scientific, #12-0193-82), anti-mouse CD45R (B220)-APC (ThermoFisher Scientific, #RA3-6B2), anti-mouse CD45.1-PerCP-Cy™5.5 (ThermoFisher Scientific, #A20), anti-mouse CD45.2-FITC (BioLegend, #104). Data were collected on a BD LSR-Fortessa X20 (BD Biosciences). The data were analysed using FlowJo Software, version 10.0.7 (Tree Star)."}
{"smiles": "CC(=O)N1c2ccc(-c3ccc(CNC(=O)c4cn5cc(-c6cnc(N)nc6)nc(N6CCOCC6)c5n4)cc3)cc2CC[C@@H]1C", "note": "[Cpd 010, (S)-N-(4-(1-acetyl-2-methyl-1,2,3,4-tetrahydroquinolin-6-yl)benzyl)-6-(2-aminopyrimidin-5-yl)-8-morpholinoimidazo[1,2-a]pyrazine-2-carboxamide]", "values": [{"measurement": "curative response", "result": 90, "unit": "%"}, {"measurement": "survival", "setting": "p<0.0001", "result": "statistically significant survival benefit"}]}
